Laboratory results reported in US10736898B2, “Positive allosteric modulators of the muscarinic acetylcholine receptor M4” (Vanderbilt University, priority 2017, dated 2020).

Key:
Human M4 = molecular target: T1, Human M4 (Homo sapiens, UniProt P08173); assay: mAChR M4 cell-based functional assay (calcium flux, potentiation of EC20 acetylcholine response); settings: for Emax at 30 µM: % ACh maximum at 30 μM, human M4; for EC50: CHO-K1 cells with human M4 and Gqi5, increase in EC20 acetylcholine response
T1 construct: expressed in transfected cells
T1 sequence (P08173 1-479): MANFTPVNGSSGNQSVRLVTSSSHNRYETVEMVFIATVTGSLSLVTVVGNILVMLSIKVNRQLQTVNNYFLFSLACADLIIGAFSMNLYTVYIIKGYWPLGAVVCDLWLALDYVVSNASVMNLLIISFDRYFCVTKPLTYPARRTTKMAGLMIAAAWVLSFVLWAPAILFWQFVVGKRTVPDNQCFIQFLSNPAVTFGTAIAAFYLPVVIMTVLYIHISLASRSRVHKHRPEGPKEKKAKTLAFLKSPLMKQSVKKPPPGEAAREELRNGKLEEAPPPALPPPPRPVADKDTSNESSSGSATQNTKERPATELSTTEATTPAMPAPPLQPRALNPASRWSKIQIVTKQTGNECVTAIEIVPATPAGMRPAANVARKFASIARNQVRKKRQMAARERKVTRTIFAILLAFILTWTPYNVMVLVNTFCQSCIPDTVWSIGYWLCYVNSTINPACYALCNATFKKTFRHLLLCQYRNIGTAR

male Sprague-Dawley rats = assay: Reversal of amphetamine-induced hyperlocomotion in rats; type: in vivo, rat; settings: 10 mg/kg p.o.
Experimental: Drugs: d-Amphetamine hemisulfate was obtained from Sigma (St. Louis, Mo.). Salt-correction was used to determine the correct amount of the d-amphetamine hemisulfate form in milligrams to add to sterile water in order to yield a 0.75 mg/mL solution, which would be dosed at 1 mL/kg body weight of each animal. […] The solutions were formulated so that animals were injected with a volume equal to 10 mL/kg body weight for all compounds. The appropriate amount according to the dosage was mixed in 10% Tween 80 (Sigma) 90% sterile water. The mixtures were then vortexed and stored in a 39° C. sonication bath for 1 hour, until in a microsuspension (except for the highest dose, which was a suspension).
Animals: Male Sprague-Dawley rats weighing 239-300 grams and averaging 265 g (Harlan, Inc., Indianapolis, Ind.) were used. They were housed in the animal care facility certified by the American Association for the Accreditation of Laboratory Animal Care (AALAC) under a 12-hour light/dark cycle (lights on: 6 a.m.; lights off: 6 p.m.) and had free access to food and water. The animals used in this experiment were food-deprived the evening before experimentation for oral dosing of compound/vehicle. The experimental protocols performed during the light cycle were approved by the Institutional Animals Care and Use Committee of Vanderbilt University and conformed to the guidelines established by the National Research Council Guide for the Care and Use of Laboratory Animals.
Amphetamine-induced Hyperlocomotion: Male Harlan Sprague Dawley rats were habituated in Smart Open Field locomotor activity test chambers (Hamilton-Kinder, San Diego, Calif.) with 16×16 photo beams to automatically record locomotor activity. […] They were monitored for an additional 30 minutes and then injected subcutaneously with vehicle or […] amphetamine. Animals were then monitored for an additional 60 minutes, for a total of 120 minutes. Data were expressed as changes in ambulation defined as total number of beam breaks per 5 minute interval. […]
Data Analysis: Behavioral data were analyzed using a two-way ANOVA with main effects of treatment and time. […] In addition, the total number of beam breaks from the amphetamine administration (65 min) to the end of the study (120 min) was calculated and graphed. Percent Reversal was calculated as follows using Microsoft Excel: In each animal, total ambulation from t=65 to t=120 was summed. The mean of each sum was calculated in the VAMP group. Then, for each animal, Percent Reversal was calculated with the following formula: Percent Reversal=100−{[(total ambulation in each animal from t=65 to t=120)/(mean of each sum from t=65 to t=120 in VAMP group)]*100}. The mean Percent Reversal, as well as the standard error, was calculated for each dose group using GraphPad Prism V5.04.

SMILES | Emax at 30 µM (Human M4) [%] | EC50 (Human M4) [nM] | percent reversal of amphetamine-induced hyperlocomotion (male Sprague-Dawley rats) [%]
Cc1nc(C)c2c(n1)sc1c(NCc3ccc(C(C)(C)O)cc3)nccc12 [Compound 14, 2-(4-(((2,4-dimethylpyrido[4′,3′:4,5]thieno[2,3-d]pyrimidin-8-yl)amino)methyl)phenyl)propan-2-ol] | 80.5 |  | 
Cc1nnc2sc(C(=O)NCc3ccc(S(=O)(=O)C(F)(F)F)cc3)c(N)c2c1C [VU0467154-9A, 5-amino-3,4-dimethyl-N-(4-((trifluoromethyl)sulfonyl)benzyl)thieno[2,3-c]pyridazine-6-carboxamide, reference compound] |  |  | 55.0
Cc1nc(C)c2c(n1)sc1c(NC3CCCC3)ncnc12 [Compound 4, N-cyclopentyl-7,9-dimethylthieno[2,3-d:4,5-d′]dipyrimidin-4-amine] | 55.5 | 557 | 
Cc1nc(C)c2c(n1)sc1c(NCc3ccc(C(C)(C)O)c(F)c3)nccc12 [Compound 31, 2-[4-[[(2,4-dimethylpyrido[4,5]thieno[1,2-b]pyrimidin-8-yl)amino]methyl]-2-fluoro-phenyl]propan-2-ol] | 85.8 | 237 | 
CCN(CC)C(=O)c1ccc(CNc2nccc3c2sc2nc(C)nc(C)c23)cc1 [Compound 23, 4-[[(2,4-dimethylpyrido[4,5]thieno[1,2-b]pyrimidin-8-yl)amino]methyl]-N,N-diethyl-benzamide] | 78.8 | 4240 | 

The next lines start with results.

Emax at 30 µM (Human M4) [%] | EC50 (Human M4) [nM] | SMILES | percent reversal of amphetamine-induced hyperlocomotion (male Sprague-Dawley rats) [%]
71.5 | 791 | Cc1nc(C)c2c(n1)sc1c(N3CC[C@@H](F)C3)ncnc12 [Compound 20, (R)-4-(3-fluoropyrrolidin-1-yl)-7,9-dimethylthieno[2,3-d:4,5-d′]dipyrimidine] | 
103 | 129 | Cc1nc(C2CC2)nc2sc3c(NC4CC4)nccc3c12 [Compound 32, N,2-dicyclopropyl-4-methyl-pyrido[4,5]thieno[1,2-d]pyrimidin-8-amine] | 
42.9 | 185 | Cc1nc(C)c2c(n1)sc1c(N3CC4(C3)CC(F)(F)C4)ncnc12 [Compound 17, 4-(6,6-difluoro-2-azaspiro[3.3]heptan-2-yl)-7,9-dimethylthieno[2,3-d:4,5-d′]dipyrimidine] | 
87.4 | 1330 | CCc1nc(C)c2c(n1)sc1c(NCc3ccc(OC)c(F)c3)nccc12 [Compound 33, 2-ethyl-N-[(3-fluoro-4-methoxy-phenyl)methyl]-4-methyl-pyrido[4,5]thieno[1,2-b]pyrimidin-8-amine] | 
73 | 1470 | Cc1nc(C2CC2)nc2sc3c(N4CCC(F)CC4)nccc3c12 [Compound 40, 2-cyclopropyl-8-(4-fluoro-1-piperidyl)-4-methyl-pyrido[4,5]thieno[1,2-d]pyrimidine] | 
